The source of these data is US20260152498A1, “4,5,6,7-TETRAHYDRO-1H-PYRAZOLO[4,3-c]PYRIDINE COMPOUNDS AND DERIVATIVES AS USP1 INHIBITORS” (EXELIXIS, INC., priority 2022, published 2026).

For orientation: inhibition means the change of the read-out against control, counted positive when it falls. What is called IC50 is the concentration that inhibits the measured activity by half. A low value points to greater potency in that assay.

Bounds are passed on as bounds.

Assay [1] addresses T1, USP1-UAF1 complex (Homo sapiens, UniProt O94782). Particulars: 1.2 µM.
Experimental: (§1) Biochemical Assay: The compounds were evaluated for their potential to inhibit USP1-UAF1 complex (Boston Biochem, Catalog: E568-050) using a fluorescence-based assay. The final concentrations of USP1-UAF1 complex protein and substrate Ubiquitin-Rhodamine-110 (R&D systems, Catalog U-555-050) used in the assay were 0.45 and 150 nM respectively. 50 mM HEPES pH. 7.5, 100 mM NaCl, 0.5 mM EDTA, 1 mM TCEP, 10% BSA, 0.01% Tween 20 buffer was used in the assay. The total assay volume was 20 μL. […] The final DMSO concentration in the assay was 1%. The compounds were pre-incubated with USP1-UAF1 complex at 25° C. for 15 min. After preincubation, required concentration of substrate was added and incubated at 25° C. for 60 min. Fluorescence at Excitation: 485 nm, Emission: 535 nm was measured in Victor-5 from Perkin Elmer.
(§2) To determine IC50 values, dose response curves were generated by plotting percentage inhibition as a function of inhibitor concentration and the data was fitted to sigmoidal non-linear regression equation (variable slope) using Graph Pad prism software V8.
(§3) The compounds were screened by the above-mentioned assay procedure.
The target in assay [2] is T1, USP1-UAF1 complex. The assay is described as follows: biochemical.
Experimental: as §1, §2, §3

T1 sequence (O94782 whole entry): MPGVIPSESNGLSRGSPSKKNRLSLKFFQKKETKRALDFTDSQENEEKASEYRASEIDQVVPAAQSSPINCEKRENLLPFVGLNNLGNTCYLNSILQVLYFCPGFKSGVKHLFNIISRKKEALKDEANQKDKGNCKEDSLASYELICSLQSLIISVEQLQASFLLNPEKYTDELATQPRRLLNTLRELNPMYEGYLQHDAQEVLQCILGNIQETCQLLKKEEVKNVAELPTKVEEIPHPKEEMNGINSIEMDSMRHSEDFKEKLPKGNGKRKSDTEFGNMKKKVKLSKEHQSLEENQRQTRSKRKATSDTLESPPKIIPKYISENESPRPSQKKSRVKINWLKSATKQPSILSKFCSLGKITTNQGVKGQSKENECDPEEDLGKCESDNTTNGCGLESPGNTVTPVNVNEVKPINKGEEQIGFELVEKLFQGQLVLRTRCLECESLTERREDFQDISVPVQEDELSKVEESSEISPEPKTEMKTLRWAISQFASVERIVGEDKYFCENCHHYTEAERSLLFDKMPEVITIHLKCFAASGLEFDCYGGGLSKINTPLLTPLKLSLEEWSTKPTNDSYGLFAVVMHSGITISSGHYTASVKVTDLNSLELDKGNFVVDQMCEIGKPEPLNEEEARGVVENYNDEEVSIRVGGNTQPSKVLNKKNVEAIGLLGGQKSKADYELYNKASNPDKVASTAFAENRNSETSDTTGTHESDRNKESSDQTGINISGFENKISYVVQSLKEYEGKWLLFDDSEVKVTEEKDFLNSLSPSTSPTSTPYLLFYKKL
T1 sequence (Q8TAF3 whole entry partner): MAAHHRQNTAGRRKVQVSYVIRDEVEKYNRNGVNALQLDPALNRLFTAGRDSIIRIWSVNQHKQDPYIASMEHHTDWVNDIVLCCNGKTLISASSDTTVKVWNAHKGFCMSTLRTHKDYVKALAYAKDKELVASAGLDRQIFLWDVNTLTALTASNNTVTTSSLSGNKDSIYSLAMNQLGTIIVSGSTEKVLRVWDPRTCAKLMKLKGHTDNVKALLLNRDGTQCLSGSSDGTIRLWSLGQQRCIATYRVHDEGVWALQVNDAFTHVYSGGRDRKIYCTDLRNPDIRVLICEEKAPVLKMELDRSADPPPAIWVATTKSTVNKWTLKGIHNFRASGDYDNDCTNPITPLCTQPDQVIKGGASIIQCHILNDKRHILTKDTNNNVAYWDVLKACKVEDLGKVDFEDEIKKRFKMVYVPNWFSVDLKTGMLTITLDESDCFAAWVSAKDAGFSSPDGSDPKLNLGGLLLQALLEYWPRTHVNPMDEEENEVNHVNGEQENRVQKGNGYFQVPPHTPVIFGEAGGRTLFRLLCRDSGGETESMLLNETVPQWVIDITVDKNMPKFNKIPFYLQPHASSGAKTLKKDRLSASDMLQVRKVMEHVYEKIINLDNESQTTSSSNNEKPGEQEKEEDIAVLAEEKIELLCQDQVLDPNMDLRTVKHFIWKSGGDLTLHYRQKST

Take `CCOc1cc(N2CCc3c(c(-c4c(OC)ncnc4C4CC4)nn3C)C2)ccc1-c1nc(C(F)(F)F)cn1C` [Compound 47, 3-(4-cyclopropyl-6-methoxypyrimidin-5-yl)-5-(3-ethoxy-4-(1-methyl-4-(trifluoromethyl)-1H-imidazol-2-yl)phenyl)-1-methyl-4,5,6,7-tetrahydro-1H-pyrazolo[4,3-c]pyridine]: at USP1-UAF1 complex [1], the inhibition came to 95%. Also, on USP1-UAF1 complex [2], the IC50 lay in the range of 50 to 100 nM.
`COc1ncnc(C2CC2)c1-c1nn(C)c2c1CN(c1ccc(-c3nc(C(F)(F)F)cn3C)c(N(C)C)c1)CC2` [Compound 48, 5-(3-(4-cyclopropyl-6-methoxypyrimidin-5-yl)-1-methyl-1,4,6,7-tetrahydro-5H-pyrazolo[4,3-c]pyridin-5-yl)-N,N-dimethyl-2-(1-methyl-4-(trifluoromethyl)-1H-imidazol-2-yl)aniline]: on USP1-UAF1 complex [1], the inhibition worked out at 97%. The same compound returned an IC50 against USP1-UAF1 complex [2] of 50 to 100 nM.
Turning to `COc1ncnc(C2CC2)c1-c1nn(C)c2c1CN(c1csc(-c3nc(C(F)(F)F)cn3C)c1)CC2` [Compound 49, 3-(4-cyclopropyl-6-methoxypyrimidin-5-yl)-1-methyl-5-(5-(1-methyl-4-(trifluoromethyl)-1H-imidazol-2-yl)thiophen-3-yl)-4,5,6,7-tetrahydro-1H-pyrazolo[4,3-c]pyridine], the inhibition at USP1-UAF1 complex [1] is 14%. On USP1-UAF1 complex [2], this compound yielded an IC50 of more than 100 nM.
Turning to `COc1ncnc(C2CC2)c1-c1nn(C)c2c1CN(c1csc(-c3nc(C(F)(F)F)cn3C)n1)CC2` [Compound 50, 4-(3-(4-cyclopropyl-6-methoxypyrimidin-5-yl)-1-methyl-1,4,6,7-tetrahydro-5H-pyrazolo[4,3-c]pyridin-5-yl)-2-(1-methyl-4-(trifluoromethyl)-1H-imidazol-2-yl)thiazole], the inhibition against USP1-UAF1 complex [1] is 20%. The compound also registered an IC50 at USP1-UAF1 complex [2] of more than 100 nM.
Regarding `COc1ncnc(C2CC2)c1-c1nn(C)c2c1CN(c1cnc(-n3nc(C(F)(F)F)cc3C)nc1)CC2` [Compound 51, 3-(4-cyclopropyl-6-methoxypyrimidin-5-yl)-1-methyl-5-(2-(5-methyl-3-(trifluoromethyl)-1H-pyrazol-1-yl)pyrimidin-5-yl)-4,5,6,7-tetrahydro-1H-pyrazolo[4,3-c]pyridine], the inhibition at USP1-UAF1 complex [1] came to 95%. The compound further showed an IC50 at USP1-UAF1 complex [2] of 50 to 100 nM.
On USP1-UAF1 complex [1], `COc1ncnc(C2CC2)c1-c1nn(C)c2c1CN(c1cnc(-c3nc(C(F)(F)F)cn3C)cn1)CC2` [Compound 52, 3-(4-cyclopropyl-6-methoxypyrimidin-5-yl)-1-methyl-5-(5-(1-methyl-4-(trifluoromethyl)-1H-imidazol-2-yl)pyrazin-2-yl)-4,5,6,7-tetrahydro-1H-pyrazolo[4,3-c]pyridine] yielded an inhibition of 96%. Also, at USP1-UAF1 complex [2], the IC50 lay in the range of 50 to 100 nM.
Taken in the same sequence, the figures for `COc1ncnc(C2CC2)c1-c1nn(C)c2c1CN(c1ccc(-c3nn(C)c4c3CN(C)CC4)cc1)CC2` [Compound 53, 3-(4-cyclopropyl-6-methoxypyrimidin-5-yl)-5-(4-(1,5-dimethyl-4,5,6,7-tetrahydro-1H-pyrazolo[4,3-c]pyridin-3-yl)phenyl)-1-methyl-4,5,6,7-tetrahydro-1H-pyrazolo[4,3-c]pyridine] were 42% and more than 100 nM.
`COc1ncnc(C2CC2)c1-c1n[nH]c2c1CN(c1ccc(-c3nc(C(F)(F)F)cn3C)cn1)CC2` [Compound 54, 3-(4-cyclopropyl-6-methoxypyrimidin-5-yl)-5-(5-(1-methyl-4-(trifluoromethyl)-1H-imidazol-2-yl)pyridin-2-yl)-4,5,6,7-tetrahydro-1H-pyrazolo[4,3-c]pyridine] came in with an inhibition on USP1-UAF1 complex [1] of 91%. On USP1-UAF1 complex [2], the IC50 was more than 100 nM.
The like results for `COc1ncnc(C2CC2)c1-c1nn(C)c2c1CN(c1ccc(-c3nc(C(F)(F)F)cn3C3CNC3)cc1)CC2` [Compound 55, 5-(4-(1-(azetidin-3-yl)-4-(trifluoromethyl)-1H-imidazol-2-yl)phenyl)-3-(4-cyclopropyl-6-methoxypyrimidin-5-yl)-1-methyl-4,5,6,7-tetrahydro-1H-pyrazolo[4,3-c]pyridine] were, in that order, 87% and more than 100 nM.
For the compound `COc1ncnc(C2CC2)c1-c1nn(C)c2c1CN(c1ccc(-c3nn(C)c4c3CNCC4)cc1)CC2` [Compound 56, 3-(4-cyclopropyl-6-methoxypyrimidin-5-yl)-1-methyl-5-(4-(1-methyl-4,5,6,7-tetrahydro-1H-pyrazolo[4,3-c]pyridin-3-yl)phenyl)-4,5,6,7-tetrahydro-1H-pyrazolo[4,3-c]pyridine], at USP1-UAF1 complex [1], the inhibition came to 5%. This compound registered an IC50 at USP1-UAF1 complex [2] of more than 100 nM.
For the compound `CCc1cc(N2CCc3c(c(-c4c(OC)ncnc4C4CC4)nn3C)C2)ccc1-c1nc(C(F)(F)F)cn1C` [Compound 57, 3-(4-cyclopropyl-6-methoxypyrimidin-5-yl)-5-(3-ethyl-4-(1-methyl-4-(trifluoromethyl)-1H-imidazol-2-yl)phenyl)-1-methyl-4,5,6,7-tetrahydro-1H-pyrazolo[4,3-c]pyridine], on USP1-UAF1 complex [1], the inhibition is 87%. In addition, the IC50 against USP1-UAF1 complex [2] was more than 100 nM.
The like results for `CCOc1ncnc(C2CC2)c1-c1nn(C)c2c1CN(c1ccc(-c3nc(C(F)(F)F)cn3C)cc1)CC2` [Compound 58, 3-(4-cyclopropyl-6-ethoxypyrimidin-5-yl)-1-methyl-5-(4-(1-methyl-4-(trifluoromethyl)-1H-imidazol-2-yl)phenyl)-4,5,6,7-tetrahydro-1H-pyrazolo[4,3-c]pyridine] were, in that order, 98% and less than 50 nM.
The like results for `COc1ncnc(C2CC2)c1-c1nn(C)c2c1CN(c1ncc(-c3nc(C(F)(F)F)cn3C)cn1)CC2` [Compound 59, 3-(4-cyclopropyl-6-methoxypyrimidin-5-yl)-1-methyl-5-(5-(1-methyl-4-(trifluoromethyl)-1H-imidazol-2-yl)pyrimidin-2-yl)-4,5,6,7-tetrahydro-1H-pyrazolo[4,3-c]pyridine] were, in that order, 95% and 50 to 100 nM.
Compound `COc1nccc(C2CC2)c1-c1nn(C)c2c1CN(c1ccc(-c3nc(C(F)(F)F)cn3C)cc1)CC2` [Compound 60, 3-(4-cyclopropyl-2-methoxypyridin-3-yl)-1-methyl-5-(4-(1-methyl-4-(trifluoromethyl)-1H-imidazol-2-yl)phenyl)-4,5,6,7-tetrahydro-1H-pyrazolo[4,3-c]pyridine] returned an inhibition against USP1-UAF1 complex [1] of 92%. At USP1-UAF1 complex [2], the IC50 was less than 50 nM.
With `Cc1cnn(C(C)C)c1-c1nn(C)c2c1CN(c1ccc(-c3nc(C(F)(F)F)cn3C)cc1)CC2` [Compound 61, 3-(1-isopropyl-4-methyl-1H-pyrazol-5-yl)-1-methyl-5-(4-(1-methyl-4-(trifluoromethyl)-1H-imidazol-2-yl)phenyl)-4,5,6,7-tetrahydro-1H-pyrazolo[4,3-c]pyridine], the inhibition on USP1-UAF1 complex [1] was found to be 98%. This compound also registered an IC50 at USP1-UAF1 complex [2] of less than 50 nM.
In the case of `Cc1cnn(C(C)C)c1-c1nn(C)c2c1CN(c1ccc(-c3nc(C(F)(F)F)cn3C)nc1)CC2` [Compound 62, 3-(1-isopropyl-4-methyl-1H-pyrazol-5-yl)-1-methyl-5-(6-(1-methyl-4-(trifluoromethyl)-1H-imidazol-2-yl)pyridin-3-yl)-4,5,6,7-tetrahydro-1H-pyrazolo[4,3-c]pyridine], at USP1-UAF1 complex [1], the inhibition was found to be 95%. The same compound showed an IC50 at USP1-UAF1 complex [2] of 50 to 100 nM.
